Reference: patent publication US5047411A, “Benzazole compounds and pharmaceutical composition comprising the same” (Fujisawa Pharmaceutical Co., Ltd., priority 1988, dated 1991)
Structures can show the parent of a compound that is named as a salt.

Experiments:
[1] = target: T1, H2-receptor (Cavia porcellus, UniProt P47747); assay: Test B: H2-receptor antagonism in isolated guinea-pig atrium; type: cell-based; conditions: 0.5 h, inhibition of histamine-induced increase in beating rate, 30 minutes after dosing; for inhibition at 3.2 µg/mL: dose 3.2 × 10^-6 g/ml
T1 construct: from tissue; host or cells: guinea-pig atrium (isolated atrial strip)
T1 sequence (P47747 whole entry): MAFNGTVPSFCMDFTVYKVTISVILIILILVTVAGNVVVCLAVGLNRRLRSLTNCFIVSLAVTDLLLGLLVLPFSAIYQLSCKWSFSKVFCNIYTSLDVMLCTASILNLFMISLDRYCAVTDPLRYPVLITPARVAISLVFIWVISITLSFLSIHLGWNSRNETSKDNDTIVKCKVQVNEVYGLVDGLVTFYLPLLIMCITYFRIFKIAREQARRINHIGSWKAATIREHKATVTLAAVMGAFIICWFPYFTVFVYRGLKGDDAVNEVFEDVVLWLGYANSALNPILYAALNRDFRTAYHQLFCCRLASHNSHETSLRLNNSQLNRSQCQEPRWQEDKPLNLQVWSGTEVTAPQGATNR
Method: The atrial strip isolated from guinea-pig was suspended under an initial tension 0.3 to 0.6 g in an organ bath containing Tyrode solution at 30° C., aerated 95%O2 -5%CO2 gas. The beating rate and amplitude of contraction of the atrium were recorded by means of a transducer and a polygraph. Histamine ([…]) was added to the bathing fluid and the increase in beating rate after dosing was measured. Addition of test compound was made 30 minutes after washing out histamine. Inhibitory effect of test compound was calculated by comparing histamine-induced increases in beating rate before and 30 minutes after dosing with test compound.

[2] = system: stress ulcer; assay: Test A: Inhibition of stress ulcer; type: in vivo, male Sprague-Dawley rats; conditions: rat, oral, given just before immobilization, ulcer area after 7 hours vs control
Method: Five male Sprague-Dawley rats, aged 7 weeks and weighing about 200 g were used per group for the study on stress ulcer after the fast for 24 hours. Each animal was immobilized in a restrain cage and immersed to a level of the xiphoid in a water bath kept 22° C. Each of the test compound suspended in 0.1% methylcellulose solution was administered orally (5 ml/kg) just before the immobilization. Seven hours later, the animals were sacrificed and their stomachs were removed. The stomach was then fixed with 2% formalin. The area of ulcers was measured for each animal, and percentage of inhibition was calculated by comparing the mean area of ulcers (mm^2) in the test animals with that in the control animals.

| SMILES | inhibition at 1 µg/mL ([1]; dose 1.0 × 10^-6 g/ml) [%] | inhibition in vivo at 32 mg/kg [2] [%] | inhibition at 3.2 µg/mL [1] [%] |
| --- | --- | --- | --- |
| CNc1nc2ccc(CCc3nc4cc(OC)ccn4c3C)cc2o1 [Test Compound (k), 6-[2-(7-Methoxy-3-methylimidazo[1,2-a]pyridin-2-yl)ethyl]-2-methylaminobenzoxazole dihydrochloride] | 92.5 | – | – |
| Cc1ccn2c(C)c(CCc3ccc4nc(N)sc4c3)nc2c1 [Test Compound (g), 6-[2-(3,7-Dimethylimidazo[1,2-a]pyridin-2-yl)ethyl]-2-aminobenzothiazole d ihydrochloride] | – | 85.4 | – |
| Cc1ccn2c(C)c(CCc3ccc4nc(N)oc4c3)nc2c1 [Test Compound (i), 6-[2-(3,7-Dimethylimidazo[1,2-a]pyridin-2-yl)ethyl]-2-aminobenzoxazole] | – | – | 93.1 |
| COc1ccn2c(C)c(CCc3ccc4nc(N)oc4c3)nc2c1 [Test Compound (h), 6-[2-(7-Methoxy-3-methylimidazo[1,2-a]pyridin-2-yl)ethyl]-2-aminobenzoxazole] | – | 93.4 | 100 |
| CCNc1nc2ccc(CCc3nc4cc(C)ccn4c3C)cc2o1 [Test Compound (j), 6-[2-(3,7-Dimethylimidazo[1,2-a]pyridin-2-yl)ethyl]-2-ethylaminobenzoxazole] | – | – | 98 |
| CNc1nc2ccc(Cc3ccccn3)cc2s1 [Test Compound (a), 6-[(2-Pyridyl)methyl]-2-methylaminobenzothiazole] | – | 87.8 | – |
| CCNc1nc2ccc(CCc3nc4cc(OC)ccn4c3C)cc2o1 [Test Compound (l), 2-Ethylamino-6-[2-(7-methoxy-3-methylimidazo[1,2-a]pyridin-2-yl)ethyl]benzoxazole dihydrochloride] | – | 98.6 | – |
| CCNc1nc2ccc(CCc3cn4ccc(C)cc4n3)cc2o1 [Test Compound (d)] | – | 84.6 | – |
| Nc1nc2ccc(Cc3ccccn3)cc2s1 [Test Compound (e), 6-[(2-Pyridyl)methyl]-2-aminobenzothiazole] | – | 98.2 | – |
| CCNc1nc2ccc(CCc3ccccn3)cc2s1 [Test Compound (b), 6-[2-(2-Pyridyl)ethyl]-2-ethylaminobenzothiazole] | – | 83.9 | – |
| CNc1nc2ccc(CCc3nc4cc(C)ccn4c3C)cc2o1 [Test Compound (f), 6-[2-(3,7-Dimethylimidazo[1,2-a]pyridin-2-yl)ethyl]-2-methylaminobenzoxazole] | – | 85.1 | – |
| Nc1nc2ccc(CCc3ccccn3)cc2s1 [Test Compound (c), 6-[2-(2-Pyridyl)ethyl]-2-aminobenzothiazole] | – | 88.5 | – |
